# Results reported in ChEMBL document CHEMBL1156863, “Synthesis of 1-(D-glucopyranosyl)-1,2,3-triazoles and their evaluation as glycogen phosphorylase inhibitors” (Bioorg Med Chem, 2010).
# Target: T1, Glycogen phosphorylase, muscle form (Oryctolagus cuniculus, UniProt P00489)
# T1 sequence (P00489 whole entry): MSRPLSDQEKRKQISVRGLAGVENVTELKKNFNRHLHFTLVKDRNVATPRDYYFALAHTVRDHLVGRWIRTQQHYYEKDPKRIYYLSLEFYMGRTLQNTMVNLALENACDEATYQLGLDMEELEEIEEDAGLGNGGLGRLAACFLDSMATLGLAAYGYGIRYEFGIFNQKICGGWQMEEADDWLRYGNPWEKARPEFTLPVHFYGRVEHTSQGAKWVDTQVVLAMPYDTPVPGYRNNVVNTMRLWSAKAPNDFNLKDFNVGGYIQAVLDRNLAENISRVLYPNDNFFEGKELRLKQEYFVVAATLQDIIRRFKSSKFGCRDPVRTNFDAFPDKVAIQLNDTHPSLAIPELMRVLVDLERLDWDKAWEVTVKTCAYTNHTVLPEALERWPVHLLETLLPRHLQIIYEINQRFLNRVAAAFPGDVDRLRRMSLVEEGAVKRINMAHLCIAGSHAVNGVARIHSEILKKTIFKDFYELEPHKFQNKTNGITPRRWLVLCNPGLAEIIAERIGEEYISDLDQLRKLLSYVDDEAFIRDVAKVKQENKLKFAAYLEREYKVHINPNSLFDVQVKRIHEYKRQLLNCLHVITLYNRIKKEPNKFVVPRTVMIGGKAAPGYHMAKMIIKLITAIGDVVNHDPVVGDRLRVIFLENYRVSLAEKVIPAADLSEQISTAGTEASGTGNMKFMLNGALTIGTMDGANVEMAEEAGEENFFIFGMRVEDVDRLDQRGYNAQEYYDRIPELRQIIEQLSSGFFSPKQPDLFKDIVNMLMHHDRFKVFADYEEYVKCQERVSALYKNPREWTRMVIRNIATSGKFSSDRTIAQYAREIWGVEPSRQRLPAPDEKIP
# Test: Inhibition of rabbit skeletal muscle glycogen phosphorylase b by Dixon plot
row,Ki [µM],SMILES
1,26,OCc1cn([C@@H]2O[C@H](CO)[C@@H](O)[C@H](O)[C@H]2O)nn1
2,20,O=C(CO)N[C@@H]1O[C@H](CO)[C@@H](O)[C@H](O)[C@H]1O

# Second part, the molecule before the results:
row,SMILES,Ki [µM]
1,COC(=O)N[C@]1(C(N)=O)O[C@H](CO)[C@@H](O)[C@H](O)[C@H]1O,16
2,OC[C@H]1O[C@@H](n2cc(-c3ccc4ccccc4c3)nn2)[C@H](O)[C@@H](O)[C@@H]1O,36
3,OC[C@H]1O[C@@H](n2cc(-c3ccccc3)nn2)[C@H](O)[C@@H](O)[C@@H]1O,162

# Target: T1, Glycogen phosphorylase, muscle form
# Test: Inhibition of rabbit skeletal muscle glycogen phosphorylase b by Lineweaver-Burke plot analysis
row,IC50 [µM],SMILES
1,350,NOC(=O)c1cn([C@@H]2O[C@H](CO)[C@@H](O)[C@H](O)[C@H]2O)nn1
2,625,OC[C@H]1O[C@@H](n2cc(-c3cccc4ccccc34)nn2)[C@H](O)[C@@H](O)[C@@H]1O
3,670,OCc1cn([C@H]2O[C@H](CO)[C@@H](O)[C@H](O)[C@H]2O)nn1
4,500,COC(=O)c1cn([C@@H]2O[C@H](CO)[C@@H](O)[C@H](O)[C@H]2O)nn1
5,780,NC(=O)[C@@]1(n2cc(-c3ccc4ccccc4c3)nn2)O[C@H](CO)[C@@H](O)[C@H](O)[C@H]1O

row,SMILES,IC50 [µM]
1,OC[C@H]1O[C@@H](n2cc(Cc3ccccc3)nn2)[C@H](O)[C@@H](O)[C@@H]1O,600
2,O=C(O)c1cn([C@H]2O[C@H](CO)[C@@H](O)[C@H](O)[C@H]2O)nn1,400

# Target: T1, Glycogen phosphorylase, muscle form
row,Ki [µM],SMILES
1,370,NC(=O)[C@H]1O[C@H](CO)[C@@H](O)[C@H](O)[C@H]1O
2,210,COCC(=O)N[C@@H]1O[C@H](CO)[C@@H](O)[C@H](O)[C@H]1O
3,1100,O=C(Cc1ccccc1)N[C@@H]1O[C@H](CO)[C@@H](O)[C@H](O)[C@H]1O

# The remaining lines, values behind:
row,SMILES,Ki [µM]
1,COC(=O)N[C@]1(C(N)=O)O[C@H](CO)[C@@H](O)[C@H](O)[C@H]1O,16
2,CC(=O)N[C@]1(C(N)=O)O[C@H](CO)[C@@H](O)[C@H](O)[C@H]1O,310
3,"O=C(NC1O[C@H](CO)[C@@H](O)[C@H](O)[C@H]1O)c1ccccc1 (single isomer, unassigned)",144
